Experimental data taken from ChEMBL document CHEMBL1201862, “PubChem BioAssay data set” (2004).
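All cell lines were grown in 96-well plates and treated with compound for 48 hours. Here, GI50 denotes the concentration required for 50% inhibition of growth.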 The source made the active and inactive calls. Cut-off read from the data, not from the text of the source: active = GI50 up to about 1.1 µM and inactive = higher.

Tests used:
Assay in all cases: NCI anticancer screen, dose series, 48 h
A498 = system: A498
BT-549 = system: BT-549
DU-145 = system: DU-145
HL-60 = system: HL-60
HOP-92 = system: HOP-92
HT-29 = system: HT-29
IGROV-1 = system: IGROV-1
KM12 = system: KM12
LOX IMVI = system: LOX IMVI
MDA-MB-435 = system: MDA-MB-435
MOLT-4 = system: MOLT-4
NCI-H226 = system: NCI-H226
NCI-H522 = system: NCI-H522
OVCAR-3 = system: OVCAR-3
SF-539 = system: SF-539
SK-OV-3 = system: SK-OV-3
SNB-75 = system: SNB-75
TK-10 = system: TK-10
U-251 = system: U-251
UO-31 = system: UO-31

| SMILES | GI50 (A498) | GI50 (BT-549) | GI50 (DU-145) | GI50 (HL-60) | GI50 (HOP-92) | GI50 (HT-29) | GI50 (IGROV-1) | GI50 (KM12) | GI50 (LOX IMVI) | GI50 (MDA-MB-435) | GI50 (MOLT-4) | GI50 (NCI-H226) | GI50 (NCI-H522) | GI50 (OVCAR-3) | GI50 (SF-539) | GI50 (SK-OV-3) | GI50 (SNB-75) | GI50 (TK-10) | GI50 (U-251) | GI50 (UO-31) |
| --- | --- | --- | --- | --- | --- | --- | --- | --- | --- | --- | --- | --- | --- | --- | --- | --- | --- | --- | --- | --- |
| CCn1c2ccccc2c2cc(/N=N\c3ccc(C#N)cc3)ccc21 | 25.8 µM (inactive) | 20.7 µM (inactive) | 62.7 µM (inactive) | 32.1 µM (inactive) | 25.3 µM (inactive) | 26.5 µM (inactive) | 32.5 µM (inactive) | 83.6 µM (inactive) | 23.7 µM (inactive) | > 100 µM (inactive) | > 100 µM (inactive) | 56.8 µM (inactive) | 38.9 µM (inactive) | > 100 µM (inactive) | 32.8 µM (inactive) | 40.8 µM (inactive) | 30.4 µM (inactive) | 32.1 µM (inactive) | 29.8 µM (inactive) | 75.7 µM (inactive) |
| COc1ccc(Oc2ccc3cc4c(cc3c2O)OCO4)c2cc(C)oc12 | 38.3 µM (inactive) | 22.5 µM (inactive) | 39.7 µM (inactive) | 25.1 µM (inactive) | 25.2 µM (inactive) | 23.2 µM (inactive) | 37.8 µM (inactive) | 28.3 µM (inactive) | 19.3 µM (inactive) | 22.3 µM (inactive) | 14.3 µM (inactive) | 25.4 µM (inactive) | 20.9 µM (inactive) | 28.8 µM (inactive) | 20.2 µM (inactive) | 52.7 µM (inactive) | 33.4 µM (inactive) | 25.4 µM (inactive) |  | 29.1 µM (inactive) |
| CCOC(=O)C(=[N+]=[N-])C(=O)C[N+]12CCN(CC1)CC2 | > 100 µM (inactive) | > 100 µM (inactive) | > 100 µM (inactive) |  | > 100 µM (inactive) | > 100 µM (inactive) | > 100 µM (inactive) | > 100 µM (inactive) | > 100 µM (inactive) | > 100 µM (inactive) | > 100 µM (inactive) | > 100 µM (inactive) | > 100 µM (inactive) | > 100 µM (inactive) |  | > 100 µM (inactive) | > 100 µM (inactive) | > 100 µM (inactive) | > 100 µM (inactive) | > 100 µM (inactive) |
| CC(=O)OC1/C(=C/c2ccc([N+](=O)[O-])cc2)C[C@H]2[C@@H]3CC=C4C[C@@H](OC(C)=O)CC[C@]4(C)[C@H]3CC[C@]12C (some centres not stated) | > 52.6 µM (inactive) | > 100 µM (inactive) | > 100 µM (inactive) | 2.61 µM (inactive) | 34.4 µM (inactive) | > 100 µM (inactive) | > 100 µM (inactive) | > 100 µM (inactive) | > 100 µM (inactive) | > 100 µM (inactive) |  | 4.63 µM (inactive) | > 91.8 µM (inactive) | > 100 µM (inactive) | 59.6 µM (inactive) | 41.4 µM (inactive) |  | 29.6 µM (inactive) | 46 µM (inactive) | > 100 µM (inactive) |
| COc1ccccc1C[C@@H]1OC2(C=CC(=O)C=C2)O[C@H]1Cc1ccccc1OC | 16.9 µM (inactive) | 2.64 µM (inactive) | 18.4 µM (inactive) | 7.43 µM (inactive) | 9.55 µM (inactive) | 9.02 µM (inactive) | 6.75 µM (inactive) | 8.69 µM (inactive) | 6.14 µM (inactive) | 14.3 µM (inactive) | 2.04 µM (inactive) | 8.47 µM (inactive) |  | 8.09 µM (inactive) | 8.75 µM (inactive) | 11.4 µM (inactive) | 9.04 µM (inactive) | 9.06 µM (inactive) | 10.2 µM (inactive) | 6.35 µM (inactive) |
| Cc1nc(OCc2ccccc2)c2ncn(CCO)c2n1 | > 100 µM (inactive) | > 100 µM (inactive) | > 100 µM (inactive) | > 100 µM (inactive) | 51.8 µM (inactive) | > 100 µM (inactive) | > 100 µM (inactive) | > 100 µM (inactive) | > 100 µM (inactive) | > 100 µM (inactive) | > 100 µM (inactive) | > 100 µM (inactive) | > 100 µM (inactive) | > 100 µM (inactive) | > 100 µM (inactive) | > 100 µM (inactive) |  | > 100 µM (inactive) | > 100 µM (inactive) | > 100 µM (inactive) |
| C=C1c2nc3ccccc3n2C=C(c2ccc(OC)cc2)N1c1ccc(OC)cc1 | 17.9 µM (inactive) | 22.1 µM (inactive) | 26.9 µM (inactive) | > 100 µM (inactive) | 15.6 µM (inactive) |  | 10.6 µM (inactive) | 14.6 µM (inactive) | 46.6 µM (inactive) | 12.1 µM (inactive) | > 100 µM (inactive) | 18.7 µM (inactive) | 10.7 µM (inactive) | 8.18 µM (inactive) | 7.16 µM (inactive) | 16.1 µM (inactive) | 5.61 µM (inactive) | 10.8 µM (inactive) | 9.71 µM (inactive) | 12.5 µM (inactive) |
| CC1(c2ccc(Cl)cc2)c2ccccc2C(=O)N1CCCN1C(=O)c2ccccc2C1=O (configuration not stated) | > 100 µM (inactive) | > 100 µM (inactive) | 40.3 µM (inactive) | 28.5 µM (inactive) | 73.6 µM (inactive) | 32.2 µM (inactive) | 9.33 µM (inactive) | 20.9 µM (inactive) | 19.6 µM (inactive) | 33.3 µM (inactive) | 29.5 µM (inactive) | 22.7 µM (inactive) |  | 32.7 µM (inactive) |  | 31.2 µM (inactive) | 58.9 µM (inactive) | > 100 µM (inactive) | 52.8 µM (inactive) | 39.9 µM (inactive) |
| COc1ccc2c(-c3ccc(O)cc3)c(Oc3ccc(Cl)cc3)c(=O)oc2c1 | 6.79 µM (inactive) | 8.75 µM (inactive) | 4.2 µM (inactive) |  | 7.87 µM (inactive) |  | 3.03 µM (inactive) | 5.75 µM (inactive) | 11.1 µM (inactive) | 7.43 µM (inactive) | 3.72 µM (inactive) | > 20.6 µM (inactive) | 2.55 µM (inactive) | 3.57 µM (inactive) | 8.26 µM (inactive) | 12 µM (inactive) | 13.2 µM (inactive) | 5.48 µM (inactive) | 6.15 µM (inactive) | 1.14 µM (inactive) |
| COc1ccc(Nc2nc3ccccc3nc2C(=O)O)cc1 | > 100 µM (inactive) | > 100 µM (inactive) | 76.7 µM (inactive) | 63.8 µM (inactive) | > 100 µM (inactive) | > 100 µM (inactive) | 87.9 µM (inactive) | 26.2 µM (inactive) | 60.1 µM (inactive) | > 100 µM (inactive) | 84.1 µM (inactive) |  | 92 µM (inactive) | 65.9 µM (inactive) | > 100 µM (inactive) | 9.04 µM (inactive) | 59.7 µM (inactive) | > 100 µM (inactive) | 64.3 µM (inactive) | 40 µM (inactive) |
| O=P1(N(CCCl)CCCl)Oc2ccc(Cl)cc2C(C(Cl)(Cl)Cl)c2cc(Cl)ccc2O1 (configuration not stated) | 24.9 µM (inactive) | 29.8 µM (inactive) | 29.1 µM (inactive) | 4.26 µM (inactive) | 3.9 µM (inactive) | 5.48 µM (inactive) |  | 13.1 µM (inactive) | 15.2 µM (inactive) | 18.5 µM (inactive) | 3.24 µM (inactive) | 17.8 µM (inactive) | 8.59 µM (inactive) | 11.4 µM (inactive) | 14.8 µM (inactive) | 22.5 µM (inactive) | 10.9 µM (inactive) | 26.2 µM (inactive) | 13.7 µM (inactive) | 10.9 µM (inactive) |
| O=C1C(Nc2ccccc2)=CC2=NCCc3n[nH]c1c32 | 61.4 µM (inactive) | 40.8 µM (inactive) | 64 µM (inactive) | 21.1 µM (inactive) | 45.8 µM (inactive) | 37 µM (inactive) | 37.8 µM (inactive) | 20.4 µM (inactive) | 13.9 µM (inactive) | 17.2 µM (inactive) | 30.1 µM (inactive) |  | 32.5 µM (inactive) | 25 µM (inactive) | 35.7 µM (inactive) | > 100 µM (inactive) | > 100 µM (inactive) | > 100 µM (inactive) | 37.4 µM (inactive) | 55.8 µM (inactive) |
| CCN(CC)CCO/N=C1\CC[C@H]2[C@@H]3CCc4cc(OC)ccc4[C@H]3CC[C@]12C | 3.18 µM (inactive) | 4.56 µM (inactive) | 4.76 µM (inactive) | 0.885 µM (active) | 2.45 µM (inactive) | 0.53 µM (active) | 3.26 µM (inactive) | 2.01 µM (inactive) | 0.789 µM (active) | 0.632 µM (active) | 1.44 µM (inactive) | 1.88 µM (inactive) | 2.52 µM (inactive) | 4.25 µM (inactive) | 1.97 µM (inactive) |  | 2.44 µM (inactive) | 6.44 µM (inactive) | 2.59 µM (inactive) | 2.94 µM (inactive) |
| Cc1ccc(S(=O)(=O)NC(=O)C2=C(c3ccccc3)[N-]N(C)c3nc4cccc[n+]4nc32)cc1 | > 100 µM (inactive) | > 100 µM (inactive) | > 100 µM (inactive) | > 100 µM (inactive) | 12.6 µM (inactive) | > 100 µM (inactive) | 51.4 µM (inactive) | > 100 µM (inactive) | 96.4 µM (inactive) | > 100 µM (inactive) | 99.5 µM (inactive) | > 100 µM (inactive) | 34.4 µM (inactive) |  | > 100 µM (inactive) |  | 57.4 µM (inactive) | > 100 µM (inactive) | > 100 µM (inactive) | > 100 µM (inactive) |
